US11098032B2, “Pyran dervatives as CYP11A1 (cytochrome P450 monooxygenase 11A1) inhibitors” (ORION CORPORATION, priority 2016, dated 2021)

Biological target: T1, CYP11A1 (Homo sapiens, UniProt P05108)
T1 construct: human H295R adrenocortical carcinoma cell line was used as source of enzyme; endogenous in cells; host or cells: H295R human adrenocortical carcinoma cells
T1 sequence (P05108 40-521): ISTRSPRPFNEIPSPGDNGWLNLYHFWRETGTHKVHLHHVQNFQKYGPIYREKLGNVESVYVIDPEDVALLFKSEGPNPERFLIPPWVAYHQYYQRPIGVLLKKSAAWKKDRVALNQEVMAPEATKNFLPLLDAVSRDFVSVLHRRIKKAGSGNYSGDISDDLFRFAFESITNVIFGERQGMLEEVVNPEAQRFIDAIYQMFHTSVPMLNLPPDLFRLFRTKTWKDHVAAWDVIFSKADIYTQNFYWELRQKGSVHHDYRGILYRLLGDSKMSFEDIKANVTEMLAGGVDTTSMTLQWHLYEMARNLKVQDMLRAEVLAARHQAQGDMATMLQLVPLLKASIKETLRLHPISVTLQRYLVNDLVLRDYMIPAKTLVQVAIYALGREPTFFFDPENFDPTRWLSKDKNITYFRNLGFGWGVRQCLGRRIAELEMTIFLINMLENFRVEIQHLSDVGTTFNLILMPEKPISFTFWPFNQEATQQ
Assay: CYP11A1 inhibition: modified isocaproic acid release assay (IARA) in H295R cells
Format: cell-based
Details: human H295R adrenocortical carcinoma cells treated three days, 3 nM [24,25-3H]-labelled cholesterol, 1% DMSO, 10 concentrations in duplicates; read-out: IC50 of the test compounds on CYP11A1 inhibition
Method in brief: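 H295R adrenocortical cells treated three days with test compounds at 10 concentrations in duplicate plus 3 nM [24,25-3H]-cholesterol, 1% DMSO final. Released radiolabelled isocaproic acid measured by scintillation counting after dextran-coated charcoal extraction; IC50 determined.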

Structure (SMILES) | IC50 [nM]
CS(=N)(=O)c1ccc(COc2coc(CN3Cc4ccc(OC(F)(F)F)cc4C3)cc2=O)cc1 (centres unmarked) [Compound 90, 5-((4-(S-Methylsulfonimidoyl)benzyl)oxy)-2-((5-(trifluoromethoxy)isoindolin-2-yl)methyl)-4H-pyran-4-one] | < 150
CC(c1cc(=O)c(OCc2ccc(S(C)(=N)=O)cc2)co1)N1Cc2ccccc2C1 (centres unmarked) [Compound 91, 2-(1-(Isoindolin-2-yl)ethyl)-5-((4-(S-methylsulfonimidoyl)benzyl)oxy)-4H-pyran-4-one] | < 150
CN=S(C)(=O)c1ccc(COc2coc(CN3Cc4ccccc4C3)cc2=O)cc1 (centres unmarked) [Compound 92, 5-((4-(N,S-Dimethylsulfonimidoyl)benzyl)oxy)-2-(isoindolin-2-ylmethyl)-4H-pyran-4-one] | < 150
Cc1ccc(S(=O)(=O)N=S(C)c2ccc(COc3coc(CN4Cc5ccccc5C4)cc3=O)cc2)cc1 (centres unmarked) [Compound 93, N-{[4-({[6-(1,3-dihydro-2H-isoindol-2-ylmethyl)-4-oxo-4H-pyran-3-yl]oxy}-methyl)phenyl](methyl)-λ^4-sulfanylidene}-4-methylbenzenesulfonamide] | < 150
CC(=O)N=S(C)(=O)c1ccc(COc2coc(CN3Cc4ccccc4C3)cc2=O)cc1 (centres unmarked) [Compound 94, N-{[4-({[6-(1,3-dihydro-2H-isoindol-2-ylmethyl)-4-oxo-4H-pyran-3-yl]oxy}-methyl)phenyl](methyl)oxido-λ^6-sulfanylidene}] | 150 to 300
O=C(c1ccc(COc2coc(CN3Cc4ccccc4C3)cc2=O)c(F)c1)N1CCC1 [Compound 95, 5-((4-(Azetidine-1-carbonyl)-2-fluorobenzyl)oxy)-2-(isoindolin-2-ylmethyl)-4H-pyran-4-one] | < 150
O=C(NC1CCSC1=O)c1ccc(COc2coc(CN3Cc4ccccc4C3)cc2=O)cc1 (centres unmarked) [Compound 96, 4-(((6-(Isoindolin-2-ylmethyl)-4-oxo-4H-pyran-3-yl)oxy)methyl)-N-(2-oxotetra-hydrothiophen-3-yl)benzamide] | 301 to 2000
CCN=S(C)(=O)c1ccc(COc2coc(CN3Cc4ccccc4C3)cc2=O)cc1 (centres unmarked) [Compound 97, 5-((4-(N-Ethyl-S-methylsulfonimidoyl)benzyl)oxy)-2-(isoindolin-2-ylmethyl)-4H-pyran-4-one] | 150 to 300
CS(=O)(=O)N1CC=C(COc2coc(CN3Cc4ccccc4C3)cc2=O)CC1 [Compound 98, 2-(Isoindolin-2-ylmethyl)-5-((1-(methylsulfonyl)-1,2,3,6-tetrahydropyridin-4-yl)methoxy)-4H-pyran-4-one] | 150 to 300
CCS(=O)(=O)N1CC=C(COc2coc(CN3Cc4ccccc4C3)cc2=O)CC1 [Compound 99, 5-((1-(Ethylsulfonyl)-1,2,3,6-tetrahydropyridin-4-yl)methoxy)-2-(isoindolin-2-ylmethyl)-4H-pyran-4-one] | 150 to 300
CC(C)S(=O)(=O)N1CC=C(COc2coc(CN3Cc4ccccc4C3)cc2=O)CC1 [Compound 100, 2-(Isoindolin-2-ylmethyl)-5-((1-(isopropylsulfonyl)-1,2,3,6-tetrahydropyridin-4-yl)methoxy)-4H-pyran-4-one] | 150 to 300
CCS(=N)(=O)c1ccc(COc2coc(CN3Cc4ccccc4C3)cc2=O)cc1 (centres unmarked) [Compound 101, 5-((4-(Ethylsulfonimidoyl)benzyl)oxy)-2-(isoindolin-2-ylmethyl)-4H-pyran-4-one] | 150 to 300
CCS(=N)(=O)c1ccc(COc2coc(CN3Cc4ccc(F)cc4C3)cc2=O)cc1 (centres unmarked) [Compound 102, 5-((4-(Ethylsulfonimidoyl)benzyl)oxy)-2-((5-fluoroisoindolin-2-yl)methyl)-4H-pyran-4-one] | 150 to 300
CC(C)S(=N)(=O)c1ccc(COc2coc(CN3Cc4ccccc4C3)cc2=O)cc1 (centres unmarked) [Compound 103, 2-(Isoindolin-2-ylmethyl)-5-((4-(propan-2-ylsulfonimidoyl)benzyl)oxy)-4H-pyran-4-one] | < 150
CS(=O)(=O)N1CCC(COc2coc(CN3Cc4ccccc4C3)cc2=O)=C(F)C1 [Compound 104, 5-((5-Fluoro-1-(methylsulfonyl)-1,2,3,6-tetrahydropyridin-4-yl)methoxy)-2-(isoindolin-2-ylmethyl)-4H-pyran-4-one] | < 150
O=c1cc(CN2Cc3ccccc3C2)occ1OCc1cccc([N+](=O)[O-])c1 [Compound 105, 2-(Isoindolin-2-ylmethyl)-5-((3-nitrobenzyl)oxy)-4H-pyran-4-one] | 301 to 2000
CN1Cc2cc(COc3coc(CN4Cc5ccccc5C4)cc3=O)ccc2C1=O [Compound 106, 5-(((6-(Isoindolin-2-ylmethyl)-4-oxo-4H-pyran-3-yl)oxy)methyl)-2-methyl-isoindolin-1-one] | 301 to 2000
O=c1cc(CN2Cc3ccccc3C2)occ1OCc1ccc(-n2ccnn2)cc1 [Compound 107, 5-((4-(1H-1,2,3-triazol-1-yl)benzyl)oxy)-2-(isoindolin-2-ylmethyl)-4H-pyran-4-one] | 150 to 300

Structure (SMILES) | IC50 [nM]
O=c1cc(CN2Cc3ccccc3C2)occ1OCc1ccc(-n2cccn2)cc1 [Compound 108, 5-((4-(1H-Pyrazol-1-yl)benzyl)oxy)-2-(isoindolin-2-ylmethyl)-4H-pyran-4-one] | 150 to 300
O=c1cc(CN2Cc3ccccc3C2)occ1OCc1ccc(-c2ncco2)cc1 [Compound 109, 2-(Isoindolin-2-ylmethyl)-5-((4-(oxazol-2-yl)benzyl)oxy)-4H-pyran-4-one] | < 150
COc1cc(COc2coc(CN3Cc4ccccc4C3)cc2=O)ccn1 [Compound 110, 2-(Isoindolin-2-ylmethyl)-5-((2-methoxypyridin-4-yl)methoxy)-4H-pyran-4-one] | 301 to 2000
O=c1cc(CN2Cc3ccccc3C2)occ1OCc1ccc(C2(O)CCC2)cc1 [Compound 111, 5-((4-(1-Hydroxycyclobutyl)benzyl)oxy)-2-(isoindolin-2-ylmethyl)-4H-pyran-4-one] | < 150
CN(C)C(=O)c1ccc(CCOc2coc(CN3Cc4ccccc4C3)cc2=O)cc1 [Compound 112, 4-(2-((6-(Isoindolin-2-ylmethyl)-4-oxo-4H-pyran-3-yl)oxy)ethyl)-N,N-dimethylbenzamide] | 301 to 2000
CS(=O)(=O)NCc1ccc(COc2coc(CN3Cc4ccccc4C3)cc2=O)cc1 [Compound 113, N-(4-(((6-(Isoindolin-2-ylmethyl)-4-oxo-4H-pyran-3-yl)oxy)methyl)benzyl)-methanesulfonamide] | < 150
O=c1cc(CN2Cc3ccccc3C2)occ1OCc1ccc(C2(O)COC2)cc1 [Compound 114, 5-((4-(3-Hydroxyoxetan-3-yl)benzyl)oxy)-2-(isoindolin-2-ylmethyl)-4H-pyran-4-one] | < 150
O=c1cc(CN2Cc3ccc(F)cc3C2)occ1OCc1ccc(C2(O)COC2)cc1 [Compound 115, 2-((5-Fluoroisoindolin-2-yl)methyl)-5-((4-(3-hydroxyoxetan-3-yl)benzyl)oxy)-4H-pyran-4-one] | < 150
O=c1cc(CN2Cc3ccc(C(F)(F)F)cc3C2)occ1OCc1ccc(C2(O)COC2)cc1 [Compound 116, 5-((4-(3-Hydroxyoxetan-3-yl)benzyl)oxy)-2-((5-(trifluoromethyl)isoindolin-2-yl)methyl)-4H-pyran-4-one] | < 150
O=c1cc(CN2CCc3ccccc3C2)occ1OCc1ccc(C2(O)COC2)cc1 [Compound 117, 2-((3,4-Dihydroisoquinolin-2(1H)-yl)methyl)-5-((4-(3-hydroxyoxetan-3-yl)-benzyl)oxy)-4H-pyran-4-one] | 301 to 2000
N#Cc1ccc(COc2coc(CN3CCc4ccccc4C3)cc2=O)cc1Cl [Compound 118, 2-Chloro-4-(((6-((3,4-dihydroisoquinolin-2(1H)-yl)methyl)-4-oxo-4H-pyran-3-yl)oxy)methyl)benzonitrile] | 301 to 2000
CN(C)C(=O)c1ccc(COc2coc(CN3CCc4ccccc4C3)cc2=O)cc1 [Compound 119, 4-(((6-((3,4-Dihydroisoquinolin-2(1H)-yl)methyl)-4-oxo-4H-pyran-3-yl)oxy)-methyl)-N,N-dimethylbenzamide] | 301 to 2000
CN(C)C(=O)c1ccc(COc2coc(CN3Cc4ccccc4C3)cc2=O)cc1 [Compound 120, 4-(((6-(Isoindolin-2-ylmethyl)-4-oxo-4H-pyran-3-yl)oxy)methyl)-N,N-dimethylbenzamide] | 150 to 300
COc1ccc(COc2coc(CN3CCc4ccccc4C3)cc2=O)cc1 [Compound 121, 2-((3,4-Dihydroisoquinolin-2(1H)-yl)methyl)-5-((4-methoxybenzyl)oxy)-4H-pyran-4-one] | 150 to 300
O=C(c1ccc(COc2coc(CN3Cc4ccccc4C3)cc2=O)cc1)N1CCCC1 [Compound 122, 2-(Isoindolin-2-ylmethyl)-5-((4-(pyrrolidine-1-carbonyl)benzyl)oxy)-4H-pyran-4-one] | < 150
O=c1cc(CN2Cc3ccccc3C2)occ1OCc1ccc(CO)cc1 [Compound 123, 5-((4-(Hydroxymethyl)benzyl)oxy)-2-(isoindolin-2-ylmethyl)-4H-pyran-4-one] | 301 to 2000
CN(C)C(=O)c1ccc(COc2coc(CN3CCc4cc(F)ccc4C3)cc2=O)cc1 [Compound 124, 4-(((6-((6-Fluoro-3,4-dihydroisoquinolin-2(1H)-yl)methyl)-4-oxo-4H-pyran-3-yl)oxy)methyl)-N,N-dimethylbenzamide] | 150 to 300
